The target in one data set is T1, HCMV polymerase (Human cytomegalovirus, UniProt P08546).
T1 construct: made in house; host or cells: recombinant baculovirus-infected SF-9 cells
The data set is described as follows: HCMV polymerase assay (scintillation proximity assay). It is filed as biochemical. Particulars: pol type CMV. The procedure, abridged: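 Baculovirus/SF-9-expressed purified enzyme in HEPES pH 7.5, KCl, 4.5 mM MgCl2, BSA, with 90 nM ³H-dTTP, ± 2 mM CHAPS; started with 6 nM biotinylated poly(dA)-oligo(dT), 30 min, stopped with EDTA. Incorporation read by streptavidin SPA beads; IC50 by linear regression.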
(In general: Scintillation proximity formats need no separation of bound from free tracer.)

The mark [1] stands for this setting: Table 1, read-out: CMV pol Assay IC50.

pIC50: −log10 of the molar value. Values joined by “and” are separate entries in the source; they are usually repeats but may differ in a detail not shown here. Identical values can stand only once. Like-named read-outs stand apart in the source and are kept apart here.

T1 sequence (P08546 whole entry): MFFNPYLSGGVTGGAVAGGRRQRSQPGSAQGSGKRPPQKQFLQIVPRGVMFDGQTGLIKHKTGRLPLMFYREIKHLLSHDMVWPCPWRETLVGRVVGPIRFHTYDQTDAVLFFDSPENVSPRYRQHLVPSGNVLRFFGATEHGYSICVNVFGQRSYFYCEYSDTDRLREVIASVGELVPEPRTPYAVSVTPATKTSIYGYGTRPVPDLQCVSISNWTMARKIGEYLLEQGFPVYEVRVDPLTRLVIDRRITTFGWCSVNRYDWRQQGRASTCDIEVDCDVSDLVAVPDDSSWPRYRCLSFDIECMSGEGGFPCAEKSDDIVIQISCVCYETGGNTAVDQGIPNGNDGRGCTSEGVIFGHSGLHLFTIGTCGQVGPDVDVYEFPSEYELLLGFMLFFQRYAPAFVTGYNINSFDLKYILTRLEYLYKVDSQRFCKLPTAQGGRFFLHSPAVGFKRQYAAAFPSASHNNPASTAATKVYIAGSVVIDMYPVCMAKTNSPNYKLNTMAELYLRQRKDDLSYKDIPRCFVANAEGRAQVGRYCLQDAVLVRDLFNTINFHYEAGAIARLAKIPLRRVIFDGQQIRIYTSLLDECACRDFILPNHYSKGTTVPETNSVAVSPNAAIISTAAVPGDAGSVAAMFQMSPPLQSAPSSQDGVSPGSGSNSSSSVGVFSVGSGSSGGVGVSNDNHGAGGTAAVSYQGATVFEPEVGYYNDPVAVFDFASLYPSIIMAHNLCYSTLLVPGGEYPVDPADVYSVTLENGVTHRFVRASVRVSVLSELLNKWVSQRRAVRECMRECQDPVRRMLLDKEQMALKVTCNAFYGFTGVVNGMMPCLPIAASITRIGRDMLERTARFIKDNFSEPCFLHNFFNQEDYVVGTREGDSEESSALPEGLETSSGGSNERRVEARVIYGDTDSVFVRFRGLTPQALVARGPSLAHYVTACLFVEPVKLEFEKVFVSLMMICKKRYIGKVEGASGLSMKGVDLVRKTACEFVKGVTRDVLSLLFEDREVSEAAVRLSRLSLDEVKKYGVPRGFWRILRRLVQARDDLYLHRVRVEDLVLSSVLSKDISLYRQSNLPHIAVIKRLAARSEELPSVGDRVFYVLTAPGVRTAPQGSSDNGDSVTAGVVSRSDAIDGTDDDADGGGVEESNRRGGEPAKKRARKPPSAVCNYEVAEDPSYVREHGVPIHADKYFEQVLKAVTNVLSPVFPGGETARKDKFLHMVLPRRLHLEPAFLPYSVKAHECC

The term melting point denotes the temperature, or range, at which the solid turns liquid. For orientation: pIC50 means the IC50 on a negative log10 scale, so that one unit is a factor of ten. For `O=S(=O)(Nc1ccc(Cl)cc1)c1cc(Cl)c2cccnc2c1O` [Example 20, 5-Chloro-N-(4-chlorophenyl)-8-hydroxy-7-quinoline-sulfonamide], the melting point is 97 °C (dec.). For the same compound, the pIC50 on HCMV polymerase (Table 2, read-out: IC50) is 4.84.

In turn, `O=C(Nc1nc2ccc(Cl)cc2s1)c1ccc2cccnc2c1O` [Example 13, N-(6-Chloro-2-benzothiazolyl)-8-hydroxy-7-quinolinecarboxamide] had a melting point of over 320 °C. The pIC50 on HCMV polymerase (setting [1]) is under 4.00.

Consider `CCCCCCCNC(=O)c1ccc2ccc(/C=C/c3ccc(OC)cc3)nc2c1O` [Example 48, N-Heptyl-8-hydroxy-2-[2-(4-methoxyphenyl)ethenyl]-7-quinolinecarboxamide], for which the melting point lay in the range of 115 to 116 °C. The negative-log IC50 (pIC50) at HCMV polymerase (Table 5, read-out: IC50) is 6.30 and > 5.51.

For the compound `Cc1ccc2c(Cl)cc(S(=O)(=O)NCc3ccc(Cl)cc3)c(O)c2n1` [Example 17, 5-Chloro-N-[(4-chlorophenyl)methyl]-8-hydroxy-2-methyl-7-quinolinesulfonamide], the melting point is 158 to 161 °C (dec.). In addition, the pIC50 on HCMV polymerase (Table 2, read-out: IC50) is 4.95.

For the compound `Cc1ccc2c(Cl)cc(S(=O)(=O)NCCc3ccc(Cl)cc3Cl)c(O)c2n1` [Example 25, 5-Chloro-N-[2-(2,4-dichlorophenyl)ethyl]-8-hydroxy-2-methyl-7-quinolinesulfonamide], the melting point was 132 to 135 °C. On HCMV polymerase (Table 2, read-out: IC50), the negative logarithm of the IC50 (pIC50) was 5.44.

With `COc1ccc(/C=C/c2ccc3ccc(C(=O)NCCSc4ccccc4)c(O)c3n2)cc1` [Example 54, 8-Hydroxy-2-[2-(4-methoxyphenyl)ethenyl]-N-[2-(phenylthio)-ethyl]-7-quinolinecarboxamide], the melting point is 163 to 165 °C. Also, the pIC50 on HCMV polymerase (Table 5, read-out: IC50) was > 5.51 and 6.52.

The compound `O=C(NCc1ccc(Cl)cc1)c1ccc2ccc(C(F)(F)F)nc2c1O` [Example 55, N-[(4-Chlorophenyl)methyl]-8-hydroxy-2-(trifluoromethyl)-7-quinolinecarboxamide] had a melting point of 92 to 94 °C. The negative-log IC50 (pIC50) on HCMV polymerase (Table 5, read-out: IC50) is 4.50 and 4.71.

For `Cc1ccc2c(Cl)cc(S(=O)(=O)Nc3ccc(Cl)cc3)c(O)c2n1` [Example 28, 5-Chloro-N-(4-chlorophenyl)-8-hydroxy-2-methyl-7-quinoline-sulfonamide], the melting point was 284 to 287 °C (dec.). The negative-log IC50 (pIC50) on HCMV polymerase (Table 2, read-out: IC50) was 5.26.

As to `O=C(Nc1nnc(Cc2ccc(Cl)cc2)s1)c1ccc2cccnc2c1O` [Example 2, N-[5-[(4-Chlorophenyl)methyl]-1,3,4-thiadiazol-2-yl]-8-hydroxy-7-quinolinecarboxamide], the melting point lay within 276 to 278 °C. In addition, the pIC50 on HCMV polymerase (setting [1]) was 5.37.

Turning to `O=C(NCCSc1ccccc1)c1ccc2ccc(/C=C/c3ccccc3)nc2c1O` [Example 52, 8-Hydroxy-2-(2-phenylethenyl)-N-[2-(phenylthio)ethyl]-7-quinolinecarboxamide], the melting point is 131 to 132 °C. Moreover, the negative logarithm of the IC50 (pIC50) on HCMV polymerase (Table 5, read-out: IC50) is > 5.51 and 6.77.

On to `O=C(NCc1ccc(Cl)cc1)c1cc(Cl)c2cccnc2c1O` [Example 11, 5-Chloro-N-[(4-chlorophenyl)methyl]-8-hydroxy-7-quinolinecarboxamide], for which the melting point is 163 to 166 °C. Besides, the pIC50 on HCMV polymerase (setting [1]) is 5.89.

`O=C(Nc1ccc(Cl)cc1)c1cc(Br)c2cccnc2c1O` [Example 4, 5-Bromo-N-(4-chlorophenyl)-8-hydroxy-7-quinolinecarboxamide] came in with a melting point of 213 to 215 °C. In addition, the pIC50 on HCMV polymerase (setting [1]) is 5.41 and 5.51 and 5.29.

Compound `O=C(NCc1ccc(Cl)cc1)c1ccc2ccc[n+]([O-])c2c1O` [Example 58, N-[(4-Chlorophenyl)methyl]-8-hydroxy-7-quinoline-N-oxide carboxamide] had a melting point of 178 to 183 °C. In addition, the “% Inhib” value at HCMV polymerase (Table 5, Conc 1.00e-004 M) is recorded as 65%. Besides, the “% Inhib” value on HCMV polymerase (Table 5, Conc 1.30e-005 M) is 27.9%. Further, the “% Inhib” value at HCMV polymerase (Table 5, Conc 2.50e-005 M) was 40.2%. Further, the “% Inhib” value on HCMV polymerase (Table 5, Conc 3.13e-006 M) is −2.9%. Further, at HCMV polymerase (Table 5, Conc 5.00e-005 M), the “% Inhib” value is on record as 46.2%. Moreover, the “% Inhib” value at HCMV polymerase (Table 5, Conc 6.25e-006 M) stood at 2.4%. The pIC50 on HCMV polymerase (Table 5, read-out: IC50) was 4.30.

As for `O=C(NC1=NC(=O)C(c2cccc(Cl)c2)S1)c1ccc2cccnc2c1O` (stereo not shown) [Example 8, N-[5-(3-Chlorophenyl)-4,5-dihydro-4-oxo-2-thiazolyl]-8-hydroxy-7-quinolinecarboxamide], the melting point is 268 to 272 °C (dec.). The pIC50 at HCMV polymerase (setting [1]) was 4.70.

Compound `O=C(NCc1ccc([N+](=O)[O-])cc1)c1ccc2cccnc2c1O` [Example 12, 8-Hydroxy-N-[(4-nitrophenyl)methyl]-7-quinolinecarboxamide] yielded a melting point of 210 to 212 °C. The pIC50 on HCMV polymerase (setting [1]) was 4.80.

As to `O=C(NCc1ccc(Cl)cc1)c1cc(F)c2cccnc2c1O` [Example 16, 5-Fluoro-N-[[4-chlorophenyl]methyl]-8-hydroxy-7-quinolinecarboxamide], the melting point fell in the range of 184 to 185 °C. Also, the negative logarithm of the IC50 (pIC50) on HCMV polymerase (setting [1]) is 5.24.

`CCCCCCCCNS(=O)(=O)c1cc(Cl)c2ccc(C)nc2c1O` [Example 29, 5-Chloro-8-hydroxy-2-methyl-N-octyl-7-quinolinesulfonamide] registered a melting point of 85 to 100 °C. In addition, the negative-log IC50 (pIC50) on HCMV polymerase (Table 2, read-out: IC50) is 4.74 and 4.40.

Regarding `O=C(NCc1ccc(Cl)cc1)c1ccc2ccc(/C=C/c3ccccc3)nc2c1O` [Example 51, N-[(4-Chlorophenyl)methyl]-8-hydroxy-2-(2-phenylethenyl)-7-quinolinecarboxamide], the melting point lay within 192 to 194 °C. For the same compound, the pIC50 at HCMV polymerase (Table 5, read-out: IC50) was > 5.51 and 6.77.

In turn, `Cc1ccc2c(Cl)cc(S(=O)(=O)NCCSc3ccccc3)c(O)c2n1` [Example 26, 5-Chloro-8-hydroxy-2-methyl-N-[2-(phenylthio)ethyl]-7-quinolinesulfonamide] returned a melting point of 136 to 139 °C. Further, the negative logarithm of the IC50 (pIC50) on HCMV polymerase (Table 2, read-out: IC50) is 5.34.

For `CC(C)(C)c1ccc2c(Cl)cc(S(=O)(=O)NCc3ccc(Cl)cc3)c(O)c2n1` [Example 19, 5-Chloro-N-[(4-chlorophenyl)methyl]-2-(1,1-dimethylethyl)-8-hydroxy-7-quinolinesulfonamide], the melting point is 162 to 163 °C (dec.). Besides, the pIC50 at HCMV polymerase (Table 2, read-out: IC50) was 4.63.

The compound `COc1ccc(/C=C/c2ccc3ccc(C(=O)NCC(O)c4ccccc4)c(O)c3n2)cc1` (stereo not shown) [Example 53, 8-Hydroxy-N-(2-hydroxy-2-phenylethyl)-2-[2-(4-methoxyphenyl)ethenyl]-7-quinolinecarboxamide] came in with a melting point of 203 to 205 °C. Further, the negative-log IC50 (pIC50) on HCMV polymerase (Table 5, read-out: IC50) is > 5.51 and 6.52.

In turn, `O=C(Nc1ccc(Cl)cc1)c1ccc2cccnc2c1O` [Example 3, N-(4-Chlorophenyl)-8-hydroxy-7-quinolinecarboxamide] yielded a melting point of 207 to 209 °C. Besides, the negative-log IC50 (pIC50) on HCMV polymerase (setting [1]) is 5.15.

Take `O=C(NCc1ccc(Cl)cc1)c1ccc2c(O)cc(C(F)(F)F)nc2c1O` [Example 46, N-[(4-Chlorophenyl)methyl]-4,8-dihydroxy-2-trifluoromethyl-7-quinolinecarboxamide]: the melting point was 135 to 140 °C (dec.). Moreover, the negative logarithm of the IC50 (pIC50) at HCMV polymerase (Table 5, read-out: IC50) was 4.63.

In turn, `Cc1ccc2c(Cl)cc(S(=O)(=O)NCc3ccccc3)c(O)c2n1` [Example 27, 5-Chloro-8-hydroxy-2-methyl-N-(phenylmethyl)-7-quinoline-sulfonamide] yielded a melting point of 113 to 114 °C. For the same compound, on HCMV polymerase (Table 2, read-out: IC50), the pIC50 is 4.83.

Consider `Br.O=S(=O)(NCCCc1ccccc1)c1cc(Cl)c2cccnc2c1O` [Example 21, 5-Chloro-8-hydroxy-N-(3-phenylpropyl)-7-quinolinesulfonamide monohydrobromide], for which the melting point is 210 to 212 °C (dec.). Also, the negative logarithm of the IC50 (pIC50) at HCMV polymerase (Table 2, read-out: IC50) is 5.12 and 4.90.

In turn, `O=C(Nc1ccc(Cl)cc1)c1cc(Cl)c2cccnc2c1O` [Example 15, 5-Chloro-N-(4-chlorophenyl)-8-hydroxy-7-quinolinecarboxamide] yielded a melting point of 214 to 216 °C. Also, on HCMV polymerase (setting [1]), the negative logarithm of the IC50 (pIC50) was 5.80.

The values are drawn from US6500842B1, “8-hydroxy-7-substituted quinolines as anti-viral agents” (Pharmacia & Upjohn Company, priority 1996, dated 2002).
